Experimental findings from patent publication US6509011B1, “Method of hair treatment using organic amino compounds” (Unilever Home & Personal Care USA, division of Conopco, Inc., priority 1999, dated 2003) are described below.

Molecules are shown by their SMILES.

The experiment is described as follows: Cuticle abrasion of treated hair switches. Here is the method:
Cuticle abrasion and sensory experiments were performed on bleached hair with unbleached “virgin” hair as a control.
A shampoo base was used to treat hair switches:
Two samples of the above formulation were prepared, with the addition of 0.2% arginine to one of the samples.
Four sets of switches were used and treated as follows:
Set 1. Bleached switches washed 6 times in base, with final base wash containing 0.2% arginine.
Set 2. Bleached switches based washed 6 times in base with 0.2% arginine
Set 3. Bleached switches washed 6 times in base without 0.2% arginine
Set 4. Unbleached virgin hair washed in base without arginine.
The treated samples were subjected to cuticle abrasion (in duplicate).

As to `N=C(N)NCCC[C@H](N)C(=O)O` [arginine], the “cuticle cohesion after cuticle abrasion” value by setting is: (set 1: bleached switches washed 6 times in base, only final wash containing 0.2% arginine) “evidence of improved cuticle cohesion”; (set 2: bleached switches washed 6 times in shampoo base with 0.2% arginine, compared with set 3 (base without arginine)) “significantly better cuticle cohesion”. Further, the “amount of cuticle removed by abrasion” value (set 1: bleached switches washed 6 times in base, only final wash containing 0.2% arginine, compared with set 3 (no arginine)) is “Significantly less cuticle was removed than set 3”. Moreover, the “removed cuticle sample size and appearance” value (set 2: bleached switches washed 6 times in shampoo base with 0.2% arginine) was “closer in sample size and appearance to the unbleached sample”.
